Results: US11180462B2, “Microbiocidal oxadiazole derivatives” (SYNGENTA PARTICIPATIONS AG, priority 2015, dated 2021)

Key:
[1] = tested on: Puccinia recondita f. Sp. Tritici; assay: Fungicidal activity against Puccinia recondita f. sp. tritici / wheat / leaf disc preventative (brown rust); assay type: in vivo; conditions: foliar, 200 ppm in the applied formulation, wheat leaf segments, preventative, compared to untreated control leaf disks, read-out: disease control
Procedure, shortened: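 Percent disease control relative to untreated check segments is scored once disease develops, 7 to 9 days after application. Wheat cv. Kanzler segments receive compound spray (200 ppm in formulation) one day before spore inoculation, then sit at 19° C. and 75% rh under 12 h light/12 h dark.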

[2] = tested on: Glomerella lagenarium (Colletotrichum lagenarium); assay: Fungicidal activity against Glomerella lagenarium (Colletotrichum lagenarium) liquid culture / cucumber / preventative (anthracnose); assay type: cell-based; conditions: Colletotrichum orbiculare; 20 ppm in the applied formulation; liquid culture (PDB), growth inhibition measured photometrically after 3 to 4 days; compared to untreated control; read-out: disease control
Procedure, shortened: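 Percent activity against the untreated check was derived from photometric growth measurements made 2 to 7 days after conidia in potato dextrose broth were combined with compound at 20 ppm. Cultures were kept dark at 24 °C and 96% humidity.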

[3] = tested on: Puccinia recondita f. Sp. Tritici; assay: Fungicidal activity against Puccinia recondita f. sp. tritici / wheat / leaf disc curative (brown rust); assay type: in vivo; conditions: foliar, 24 h, 200 ppm in the applied formulation, wheat leaf segments, curative (applied 1 day after inoculation), compared to untreated control leaf disks, read-out: disease control
Procedure, shortened: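 Curative test on wheat leaf segments (cv. Kanzler) on agar, inoculated with spore suspension and held dark at 19° C, 75% RH; formulated compound in water applied 1 day after inoculation. Incubated at 19° C, 75% RH, 12 h light/12 h dark; percent disease control versus untreated scored 6 to 8 days after application.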

CCC(C)N(Cc1ccc(-c2noc(C(F)(F)F)n2)cc1)C(=O)C=CC(C)=O (stereo not drawn) [Compound 1.396, 4-oxo-N-sec-butyl-N-[[4-[5-(trifluoromethyl)-1,2,4-oxadiazol-3-yl]phenyl]methyl]-pent-2-enamide]
≥ 80%: pest or weed control at 200 ppm [1] | inhibition of growth at 20 ppm [2] | pest or weed control at 200 ppm [3]

CCN(CC1CC1)C(=O)N(C)Cc1ccc(-c2noc(C(F)(F)F)n2)cc1 [Compound 3.81, 1-(cyclopropylmethyl)-1-ethyl-3-methyl-3-[[4-[5-(trifluoromethyl)-1,2,4-oxadiazol-3-yl]phenyl]methyl]urea]
≥ 80%: pest or weed control at 200 ppm [1] | inhibition of growth at 20 ppm [2] | pest or weed control at 200 ppm [3]

COCCN(Cc1ccc(-c2noc(C(F)(F)F)n2)cc1)C(=O)COC(C)=O [Compound 1.348, [2-[2-methoxyethyl-[[4-[5-(trifluoromethyl)-1,2,4-oxadiazol-3-yl]phenyl]methyl]-amino]-2-oxo-ethyl] acetate]
≥ 80%: pest or weed control at 200 ppm [1] | inhibition of growth at 20 ppm [2] | pest or weed control at 200 ppm [3]

CON(Cc1ccc(-c2noc(C(F)(F)F)n2)cc1)C(=O)OCCCCl [Compound 2.16, 3-chloropropyl N-methoxy-N-[[4-[5-(trifluoromethyl)-1,2,4-oxadiazol-3-yl]phenyl]methyl]-carbamate]
≥ 80%: pest or weed control at 200 ppm [1] | inhibition of growth at 20 ppm [2] | pest or weed control at 200 ppm [3]

CON(C(=O)C1CC1)C(C)c1ccc(-c2noc(C(F)(F)F)n2)cc1 (stereo not drawn) [Compound 1.279, N-methoxy-N-[1-[4-[5-(trifluoromethyl)-1,2,4-oxadiazol-3-yl]phenyl]ethyl]-cyclopropane-carboxamide]
≥ 80%: pest or weed control at 200 ppm [1] | inhibition of growth at 20 ppm [2] | pest or weed control at 200 ppm [3]

C=CCN(C)C(=O)N(CC)Cc1ccc(-c2noc(C(F)(F)F)n2)cc1 [Compound 3.97, 1-allyl-3-ethyl-1-methyl-3-[[4-[5-(trifluoromethyl)-1,2,4-oxadiazol-3-yl]phenyl]methyl]urea]
≥ 80%: pest or weed control at 200 ppm [1] | inhibition of growth at 20 ppm [2] | pest or weed control at 200 ppm [3]

O=C(Cc1ccc(Cl)cc1)N(Cc1ccc(-c2noc(C(F)(F)F)n2)cc1)C1CC1 [Compound 1.127, 2-(4-chlorophenyl)-N-cyclopropyl-N-[[4-[5-(trifluoromethyl)-1,2,4-oxadiazol-3-yl]phenyl]methyl]-acetamide]
≥ 80%: pest or weed control at 200 ppm [1] | inhibition of growth at 20 ppm [2] | pest or weed control at 200 ppm [3]

CCC(C)N(Cc1ccc(-c2noc(C(F)(F)F)n2)cc1)C(=O)CC1CC1 (stereo not drawn) [Compound 1.375, 2-cyclopropyl-N-sec-butyl-N-[[4-(5-(trifluoromethyl)-1,2,4-oxadiazol-3-yl]phenyl]methyl]-acetamide]
≥ 80%: pest or weed control at 200 ppm [1] | inhibition of growth at 20 ppm [2] | pest or weed control at 200 ppm [3]

COCCCC(=O)N(OC)C(C)c1ccc(-c2noc(C(F)(F)F)n2)cc1 (stereo not drawn) [Compound 1.280, N,4-dimethoxy-N-[1-[4-[5-(trifluoro-methyl)-1,2,4-oxadiazol-3-yl]phenyl]ethyl]-butanamide]
≥ 80%: pest or weed control at 200 ppm [1] | inhibition of growth at 20 ppm [2] | pest or weed control at 200 ppm [3]

C=CCN(C)C(=O)N(C)Cc1ccc(-c2noc(C(F)(F)F)n2)cc1 [Compound 3.78, 1-allyl-1,3-dimethyl-3-[[4-[5-(trifluoromethyl)-1,2,4-oxadiazol-3-yl]phenyl]methyl]urea]
≥ 80%: pest or weed control at 200 ppm [1] | inhibition of growth at 20 ppm [2] | pest or weed control at 200 ppm [3]

CC(=O)OCC(=O)N(Cc1ccc(-c2noc(C(F)(F)F)n2)cc1)CC1CCCO1 (stereo not drawn) [Compound 1.435, [2-oxo-2-[tetrahydrofuran-2-ylmethyl-[[4-[5-(trifluoromethyl)-1,2,4-oxadiazol-3-yl]phenyl]methyl]-amino]ethyl] acetate]
≥ 80%: pest or weed control at 200 ppm [1] | inhibition of growth at 20 ppm [2] | pest or weed control at 200 ppm [3]

CC(=O)N(Cc1ccc(-c2noc(C(F)(F)F)n2)cc1)CC1CCCO1 (stereo not drawn) [Compound 1.451, N-(tetrahydrofuran-2-ylmethyl)-N-[[4-[5-(trifluoromethyl)-1,2,4-oxadiazol-3-yl]phenyl]methyl]-acetate]
≥ 80%: pest or weed control at 200 ppm [1] | inhibition of growth at 20 ppm [2] | pest or weed control at 200 ppm [3]

C=CCN(Cc1ccc(-c2noc(C(F)(F)F)n2)cc1)C(=O)CNC(C)=O [Compound 1.481, 2-acetamido-N-allyl-N-[[4-[5-(trifluoromethyl)-1,2,4-oxadiazol-3-yl]phenyl]methyl]-acetamide]
≥ 80%: pest or weed control at 200 ppm [1] | inhibition of growth at 20 ppm [2] | pest or weed control at 200 ppm [3]

CN(CC#N)C(=O)N(C)Cc1ccc(-c2noc(C(F)(F)F)n2)cc1 [Compound 3.70, 1-(cyanomethyl)-1,3-dimethyl-3-[[4-[5-(trifluoromethyl)-1,2,4-oxadiazol-3-yl]phenyl]methyl]urea]
≥ 80%: pest or weed control at 200 ppm [1] | inhibition of growth at 20 ppm [2] | pest or weed control at 200 ppm [3]

COCC(=O)N(Cc1ccc(-c2noc(C(F)(F)F)n2)cc1)CC1CCCO1 (stereo not drawn) [Compound 1.415, 2-methoxy-N-(tetrahydrofuran-2-ylmethyl)-N-[[4-[5-(trifluoromethyl)-1,2,4-oxadiazol-3-yl]phenyl]methyl]-acetamide]
≥ 80%: pest or weed control at 200 ppm [1] | inhibition of growth at 20 ppm [2] | pest or weed control at 200 ppm [3]

CON(C(=O)C1CSC1)C(C)c1ccc(-c2noc(C(F)(F)F)n2)cc1 (stereo not drawn) [Compound 1.259, N-methoxy-N-[1-[4-[5-(trifluoromethyl)-1,2,4-oxadiazol-3-yl]phenyl]ethyl]-thietane-3-carboxamide]
≥ 80%: pest or weed control at 200 ppm [1] | inhibition of growth at 20 ppm [2] | pest or weed control at 200 ppm [3]

CCCC(=O)N(Cc1ccc(-c2noc(C(F)(F)F)n2)cc1)C(C)CC (stereo not drawn) [Compound 1.373, N-sec-butyl-N-[[4-[5-(trifluoromethyl)-1,2,4-oxadiazol-3-yl]phenyl]methyl]-butanamide]
≥ 80%: pest or weed control at 200 ppm [1] | inhibition of growth at 20 ppm [2] | pest or weed control at 200 ppm [3]

C#CC(=O)N(Cc1ccc(-c2noc(C(F)(F)F)n2)cc1)CC1CCCO1 (stereo not drawn) [Compound 1.434, N-(tetrahydrofuran-2-ylmethyl)-N-[[4-[5-(trifluoromethyl)-1,2,4-oxadiazol-3-yl]phenyl]methyl] prop-2-ynamide]
≥ 80%: pest or weed control at 200 ppm [1] | inhibition of growth at 20 ppm [2] | pest or weed control at 200 ppm [3]

CC(C)C(=O)N(Cc1ccc(-c2noc(C(F)(F)F)n2)cc1)Cc1ccco1 [Compound 1.463, N-(2-furylmethyl)-2-methyl-N-[[4-[5-(trifluoromethyl)-1,2,4-oxadiazol-3-yl]phenyl]methyl]-propanamide]
≥ 80%: pest or weed control at 200 ppm [1] | inhibition of growth at 20 ppm [2] | pest or weed control at 200 ppm [3]

O=C(C1CCCO1)N(Cc1ccc(-c2noc(C(F)(F)F)n2)cc1)Cc1ccco1 (stereo not drawn) [Compound 1.469, N-(2-furylmethyl)-N-[[4-[5-(trifluoromethyl)-1,2,4-oxadiazol-3-yl]phenyl]methyl]-tetrahydrofuran-2-carboxamide]
≥ 80%: pest or weed control at 200 ppm [1] | inhibition of growth at 20 ppm [2] | pest or weed control at 200 ppm [3]

CCN(Cc1ccc(-c2noc(C(F)(F)F)n2)cc1)C(=O)N(C)CCOC [Compound 3.85, 1-ethyl-3-(2-methoxyethyl)-3-methyl-1-[[4-[5-(trifluoromethyl)-1,2,4-oxadiazol-3-yl]phenyl]methyl]urea]
≥ 80%: pest or weed control at 200 ppm [1] | inhibition of growth at 20 ppm [2] | pest or weed control at 200 ppm [3]

CCOCC(=O)N(Cc1ccc(-c2noc(C(F)(F)F)n2)cc1)CC1CCCO1 (stereo not drawn) [Compound 1.426, 2-ethoxy-N-(tetrahydrofuran-2-ylmethyl)-N-[[4-[5-(trifluoromethyl)-1,2,4-oxadiazol-3-yl]phenyl]methyl]-acetamide]
≥ 80%: pest or weed control at 200 ppm [1] | inhibition of growth at 20 ppm [2] | pest or weed control at 200 ppm [3]

CCCC(=O)N(Cc1ccc(-c2noc(C(F)(F)F)n2)cc1)Cc1ccco1 [Compound 1.465, N-(2-furylmethyl)-N-[[4-[5-(trifluoromethyl)-1,2,4-oxadiazol-3-yl]phenyl]methyl]-butanamide]
≥ 80%: pest or weed control at 200 ppm [1] | inhibition of growth at 20 ppm [2] | pest or weed control at 200 ppm [3]
